Results on 1 compound are retold here after patent US8796457B2, “Compound useful for the treatment of degenerative and inflammatory diseases” (Galapagos NV, priority 2009, dated 2014).

Read-outs that look alike come from different tables or passages of the source.

For data set [1], the target named is T1, JAK1 (Homo sapiens (Human), UniProt P23458). The data set can be described thus: JAK1 Ki determination assay (polyGT, 33P filter plate). It counts as biochemical. The settings on record: Lineweaver-Burk; polyGT substrate, 33P readout.
T1 sequence (P23458 866-1154): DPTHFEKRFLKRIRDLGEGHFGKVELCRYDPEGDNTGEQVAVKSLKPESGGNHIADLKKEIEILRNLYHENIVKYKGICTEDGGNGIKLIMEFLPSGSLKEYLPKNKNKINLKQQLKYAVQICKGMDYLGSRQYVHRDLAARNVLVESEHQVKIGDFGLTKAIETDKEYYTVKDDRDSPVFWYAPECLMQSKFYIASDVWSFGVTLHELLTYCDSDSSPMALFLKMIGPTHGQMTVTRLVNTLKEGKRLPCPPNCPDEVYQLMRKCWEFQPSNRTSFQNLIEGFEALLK
Method: For the determination of Ki, different amounts of inhibitor were mixed with the enzyme and the enzymatic reaction was followed as a function of ATP concentration. The Ki was determined by means of double reciprocal plotting of Km vs compound concentration (Lineweaver-Burk plot). JAK1 (Invitrogen, PV4774) was used at a final concentration of 500 ng/ml. […] Measurement of incorporated phosphate into the substrate polyGT was done by loading the samples on a filter plate (using a harvester, Perkin Elmer) and subsequent washing. Incorporated ^33P in polyGT is measured in a Topcount scintillation counter after addition of scintillation liquid to the filter plates (Perkin Elmer).
For data set [2], the target named is T1, JAK1. The data set can be described thus: JAK1 Ki determination assay (Ulight-JAK-1 peptide). As to conditions: Lineweaver-Burk; Ulight-JAK-1 (Tyr1023) peptide, alternative protocol. It counts as biochemical.
Method: Alternatively, for the determination of Ki, different amounts of inhibitor were mixed with the enzyme and the enzymatic reaction was followed as a function of ATP concentration. The Ki was determined by means of double reciprocal plotting of Km vs compound concentration (Lineweaver-Burk plot). 1 ng of JAK1 (Invitrogen, PV4774) was used in the assay. The substrate was 50 nM Ulight-JAK-1 ([MUT]) Peptide (Perkin Elmer, TRF0121) The reaction was performed in 25 mM MOPS pH 6.8, 0.01%, 2 mM DTT, 5 mM MgCl2 Brij-35 with varying concentrations of ATP and compound. Phosphorylated substrate was measured using an Eu-labeled anti-phosphotyrosine antibody PT66 (Perkin Elmer, AD0068). Readout was performed on the envision (Perkin Elmer) with excitation at 320 nm and emission followed at 615 nm and 665 nm.
Another data set addresses JAK2 (Homo sapiens (Human), UniProt O60674). The data set can be described thus: JAK2 Ki determination assay (Ulight-JAK-1 peptide). Format: biochemical. As to conditions: Lineweaver-Burk; Ulight-JAK-1 (Tyr1023) peptide, alternative protocol. As to the method: Alternatively, for the determination of Ki, different amounts of inhibitor were mixed with the enzyme and the enzymatic reaction was followed as a function of ATP concentration. […] 0.0125 mU of JAK2 (Invitrogen, PV4210) was used in the assay. The substrate was 50 nM Ulight-JAK-1 (Tyr1023) Peptide (Perkin Elmer, TRF0121). The reaction was performed in 25 mM HEPES pH 7.0, 0.01% Triton X-100, 2 mM DTT, 7.5 mM MgCl2 with varying concentrations of ATP and compound. Phosphorylated substrate was measured using an Eu-labeled anti-phosphotyrosine antibody PT66 (Perkin Elmer, AD0068). Readout was performed on the envision (Perkin Elmer) with excitation at 320 nm and emission followed at 615 nm and 665 nm.

Another data set addresses JAK3 (Homo sapiens (Human), UniProt P52333). Briefly: JAK3 Ki determination assay. Format: biochemical. The settings on record: Lineweaver-Burk; polyGT substrate, 33P readout. From the text:
For the determination of Ki, different amounts of inhibitor were mixed with the enzyme and the enzymatic reaction was followed as a function of ATP concentration.

The subject of data set [3] is JAK2 dependent pathway (GM-CSF induced IL-8) in human whole blood. The data set can be described thus: Whole blood assay, GM-CSF stimulation, IL-8 ELISA. Format: cell-based. As to conditions: 6 blood donors, ± SEM, read-out: pIC50 for inhibition of GM-CSF induced increase of IL-8 (converted). How it is done:
For GM-CSF stimulation, increase in interleukin-8 (IL-8) levels in plasma was measured using an IL-8 ELISA assay. Granulocyte macrophage-colony stimulating factor (GM-CSF)—induced interleukin 8 (IL-8) expression is a JAK2-mediated event.
The increase in IL-8 levels in plasma was measured using an IL-8 ELISA assay.
10 μg GM-CSF was dissolved in 100 μL H2O to obtain a 100 μg/mL stock solution. The stock solution was stored at −20° C.
A 3-fold dilution series of the test compound was prepared in DMSO (highest concentration: 10 mM).
Human blood was collected in heparinized tubes. The blood was divided in aliquots of 245 μL. […] The GM-CSF stock solution was diluted 100-fold in RPMI medium to obtain a 1 μg/mL work solution. […] The samples were incubated at 37° C. for 2 h.
The samples were centrifuged for 15 min at 1,000 g, 4° C. 100 μL of the plasma was harvested and stored at −80° C. until further use.
The Human IL-8 Chemiluminescent Immunoassay kit from R&D Systems (Cat. n°: Q8000B) was used to determine IL-8 levels.
Wash buffer was prepared by diluting 10× wash buffer in H2O. Working glo reagent was prepared by adding 1 part Glo Reagent 1 to 2 parts Glo Reagent B 15 min to 4 h before use.
100 μL assay diluent RD1-86 was added to each well. After that, 50 μL of sample (plasma) was added. […] Luminescence was measured (0.5 s/well read time).
(In an ELISA, binding on a coated surface is turned into a signal by an enzyme label.)

The nature of data set [4]: Microsomal stability, human. Format: in vitro ADME. The settings on record: human liver microsomes, 3 μM compound, 37° C. As to the method:
A 10 mM stock solution of compound in DMSO was diluted 1000 fold in a 182 mM phosphate buffer pH7.4 in a 96 deep well plate (Greiner, Cat no. 780285) and pre-incubated at 37° C.
40 μL of deionised water was added to a well of a polypropylene Matrix 2D barcode labelled storage tube (Thermo Scientific) and pre-incubated at 37° C.
A Glucose-6-phophate-dehydrogenase (G6PDH) working stock solution was prepared in 182 mM phosphate buffer pH7.4 and placed on ice before use. A co-factor containing MgCl2, glucose-6-phosphate and NADP+ was prepared in deionised water and placed on ice before use. […]
These plates were sealed with sealing mats (MA96RD-04S) of www.kinesis.co.uk and samples were measured at room temperature on LCMS (ZQ 1525 from Waters) under optimized conditions using Quanoptimize to determine the appropriate mass of the parent molecule.
The samples were analyzed on LCMS with a flow rate of 1 mL/min. […]
Peak area from the parent compound at time 0 was considered to be 100% remaining. The percentage remaining after 1 hour incubation was calculated from time 0 and was calculated as the percentage remaining. […]
The data on microsomal stability are expressed as a percentage of the total amount of compound remaining after 60 minutes.
Background: Microsomes from liver hold many membrane-bound enzymes, among them those of drug oxidation.

Sequence of JAK2 (O60674 849-1124): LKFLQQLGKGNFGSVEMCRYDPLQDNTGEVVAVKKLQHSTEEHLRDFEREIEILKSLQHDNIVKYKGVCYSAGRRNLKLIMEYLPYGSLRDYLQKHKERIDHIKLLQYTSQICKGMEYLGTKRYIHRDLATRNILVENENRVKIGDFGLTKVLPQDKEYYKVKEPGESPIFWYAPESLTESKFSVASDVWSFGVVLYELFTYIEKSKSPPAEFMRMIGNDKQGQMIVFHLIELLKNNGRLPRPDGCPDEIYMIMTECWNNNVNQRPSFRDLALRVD
Sequence of JAK3 (P52333 whole entry): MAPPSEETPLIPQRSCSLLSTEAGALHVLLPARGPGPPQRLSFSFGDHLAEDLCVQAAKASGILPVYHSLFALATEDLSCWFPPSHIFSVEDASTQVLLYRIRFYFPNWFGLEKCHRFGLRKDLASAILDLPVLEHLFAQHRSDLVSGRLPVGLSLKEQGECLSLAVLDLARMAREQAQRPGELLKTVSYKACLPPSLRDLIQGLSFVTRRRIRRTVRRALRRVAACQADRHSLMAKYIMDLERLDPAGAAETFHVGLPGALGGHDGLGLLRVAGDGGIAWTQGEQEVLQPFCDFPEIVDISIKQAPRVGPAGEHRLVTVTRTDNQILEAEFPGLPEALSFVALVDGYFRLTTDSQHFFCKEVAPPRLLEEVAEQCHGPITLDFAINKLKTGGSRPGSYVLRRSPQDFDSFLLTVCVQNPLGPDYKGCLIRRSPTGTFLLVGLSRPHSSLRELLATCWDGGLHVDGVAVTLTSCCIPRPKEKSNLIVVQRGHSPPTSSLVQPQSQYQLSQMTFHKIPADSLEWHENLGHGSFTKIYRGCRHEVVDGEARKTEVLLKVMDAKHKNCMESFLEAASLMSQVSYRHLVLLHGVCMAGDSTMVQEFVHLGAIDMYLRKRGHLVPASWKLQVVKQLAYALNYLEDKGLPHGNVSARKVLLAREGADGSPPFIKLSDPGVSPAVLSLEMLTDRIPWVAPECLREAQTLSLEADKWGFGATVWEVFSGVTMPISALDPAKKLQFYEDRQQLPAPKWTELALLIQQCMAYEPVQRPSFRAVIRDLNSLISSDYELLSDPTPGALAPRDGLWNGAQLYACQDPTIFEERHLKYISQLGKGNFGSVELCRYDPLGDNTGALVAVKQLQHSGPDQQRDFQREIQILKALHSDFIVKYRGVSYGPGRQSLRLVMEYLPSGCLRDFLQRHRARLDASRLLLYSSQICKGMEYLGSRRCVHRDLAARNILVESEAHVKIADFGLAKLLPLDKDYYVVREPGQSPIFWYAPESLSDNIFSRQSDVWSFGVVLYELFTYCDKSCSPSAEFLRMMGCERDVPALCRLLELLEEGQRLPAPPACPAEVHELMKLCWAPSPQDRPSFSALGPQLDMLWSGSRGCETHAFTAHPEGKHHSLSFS

In the case of `CC1(C)CN(C(=O)c2ccc(-c3cccc4nc(NC(=O)C5CC5)nn34)cc2)C1` [Compound 1, Cyclopropanecarboxylic acid{5-[4-(3,3-dimethyl-azetidine-1-carbonyl)-phenyl]-[1,2,4]triazolo[1,5-a]pyridin-2-yl}-amide], the inhibition constant Ki (commonly a dissociation constant, usually derived from enzyme kinetics or from competition with a known ligand) at JAK1 [1] was 0.0069 µM; on JAK1 [2], 0.0056 µM; at JAK2 it was 0.035 µM; on JAK3 it was 0.188 µM. Also, the IC50 in data set [3] (additional data analysis protocol (R2 > 0.8, hill slope < 3)) was 10.7 µM; in data set [3] (human whole blood), 13.5 µM. In data set [4], the “Microsomal stability, percentage of compound remaining after 60 minutes, Human” value is listed as 76-100%.
